What was measured:
human bone marrow cells [1] = assay: Bone marrow proliferation assay (3H-thymidine uptake, cytokine-activated cells); format: cell-based; details: Bone marrow cell; for IC50: concentration inhibiting proliferation by 50%
Protocol: Bone marrow (BM) was obtained from human donors, collected in Dulbecco's phosphate buffered saline (DPBS) containing 200 units/mL of heparin. The BM cells were then processed as described below. ROSETTESEP™ cocktail was added to the BM cells at a ratio of 50 μL of cocktail per 1 mL of cells in a test tube and the tubes were mixed well by repeated inversion. This mixture was then incubated at room temperature for approximately 20 minutes. A mixture containing PBS/2% FBS/1 mM EDTA was prepared and the BM sample was mixed in a 1:2 ratio (e.g., 10 mL marrow+20 mL PBS/2% FBS/1 mM EDTA) and gently mixed by inversion. […] Cells were counted and viability checked and cells were adjusted to 5×10^5/mL in complete medium containing the following human recombinant growth factors/cytokines at the indicated final concentrations (cytokines may be obtained from various sources; those from StemCell Technologies were used herein): • Stem Cell Factor (50 ng/mL) • GM-CSF (20 ng/mL) • IL-3 (20 ng/mL) • IL-6 (20 ng/mL) • G-CSF (20 ng/mL)
Flat-bottom microtiter tissue culture plates (96 well) were used for the assay. Cells were placed in wells so that each well contained 5×10^4 cells. Typically, cultures were performed in triplicate wells. Wells were brought to a final volume of 200 μL with either complete medium or various concentrations of test compounds, which were diluted in complete medium. Plates were covered with plastic wrap (to reduce evaporation) and placed in a humidified 5% CO2 incubator at 37° C. for 3 days.

human bone marrow cells [2] = assay: Traditional CFU-GM colony-forming assay (myelotoxicity); format: cell-based
Protocol: Bone marrow was enriched after ficoll hypaque density centrifugation. 1×10^5 bone marrow cells per dish, containing METHOCULT GF H4534 (1% methylcellulose, 30% FBS, 1% BSA, 10^-4 M 2-ME, 2 mM L-gln, 50 ng/mL recombinant human (rh) stem cell factor (SCF), 10 ng/mL rh granulocyte/macrophage-colony stimulating factor (GM-CSF), and 10 ng/mL rh interleukin-3 (IL-3). METHOCULT was obtained from StemCell Technologies (Vancouver, BC, Canada). Cultures were treated with various concentrations of test compounds for the entire culture period. Cultures were performed in duplicate and were incubated for ˜14 days at 37° C. in 5% CO2 and scored for colony growth (colony-forming units-granulocyte/macrophage, or CFU-GM) with a phase-contrast inverted microscope. Colonies containing >50 cells were considered positive.

[3] = 72 h, Prolif., linear regression, 3 days, mean +/- spread
[4] = CFU-GM, 336 h, CFU-GM, concentration inhibiting colony growth by 50%, linear regression, ~14 days, mean +/- spread
[5] = CFU-GM, 336 h, CFU-GM, concentration inhibiting colony growth by 90%, linear regression, ~14 days, mean +/- spread
[6] = 72 h, Prolif., concentration inhibiting proliferation by 90%, linear regression, 3 days, mean +/- spread, read-out: IC90
[7] = Bone marrow cell, Colony-forming Assay, intra-assay variation, equal to the mean of the five determinations
[8] = Bone marrow cell, Colony-forming Assay, intra-assay variation, individual determinations

Cc1cn([C@H]2C[C@H](N=[N+]=[N-])[C@@H](CO)O2)c(=O)[nH]c1=O [AZT, 3′-azido-3′-deoxythymidine]
IC90 (human bone marrow cells [1]; 72 h): 146000 nM | IC50 (human bone marrow cells [1]; [3]): 17100 nM | IC50 (human bone marrow cells [2]; [4]): 34500 nM | IC90 (human bone marrow cells [2]; [5]): 387000 nM

COc1cccc2c1C(=O)c1c(O)c3c(c(O)c1C2=O)C[C@@](O)(C(=O)CO)C[C@@H]3O[C@H]1C[C@H](N)[C@H](O)[C@H](C)O1 [Doxorubicin, doxorubicin]
IC90 (human bone marrow cells [1]; [6]): 68 nM | IC90 (human bone marrow cells [1]; Proliferation Assay, intra-assay variation, equal to the mean of the five determinations, read-out: IC90): 70.2 nM | IC90 (human bone marrow cells [1]; Proliferation Assay, intra-assay variation, individual determinations, read-out: IC90): 71.2 nM | IC50 (human bone marrow cells [2]; [7]): 29.1 nM | IC90 (human bone marrow cells [2]; [7]): 69.2 nM | IC50 (human bone marrow cells [2]; [8]): 34.2 nM | IC90 (human bone marrow cells [2]; [8]): 72.4 nM | IC50 (human bone marrow cells [2]; [4]): 40 nM | IC90 (human bone marrow cells [2]; [5]): 132 nM

Nc1ccn([C@@H]2O[C@H](CO)[C@@H](O)C2(F)F)c(=O)n1 [Gemcitabine, gemcitabine]
IC50 (human bone marrow cells [1]; [3]): 1.2 nM | IC90 (human bone marrow cells [1]; [6]): 4.4 nM | IC50 (human bone marrow cells [2]; [4]): 1.3 nM | IC90 (human bone marrow cells [2]; [5]): 4.2 nM

CC(=O)O[C@H]1C(=O)[C@@]2(C)[C@H]([C@H](OC(=O)c3ccccc3)[C@]3(O)C[C@H](OC(=O)[C@H](O)[C@@H](NC(=O)c4ccccc4)c4ccccc4)C(C)=C1C3(C)C)[C@]1(OC(C)=O)CO[C@@H]1C[C@@H]2O [Paclitaxel, paclitaxel]
IC50 (human bone marrow cells [1]; [3]): 1.9 nM | IC90 (human bone marrow cells [1]; [6]): 4.9 nM | IC50 (human bone marrow cells [2]; [4]): 3.4 nM | IC90 (human bone marrow cells [2]; [5]): 6 nM

Nc1ccn([C@@H]2S[C@H](CO)[C@@H](O)[C@@H]2O)c(=O)n1 [Thio-ara-C, thio-ara-C]
IC50 (human bone marrow cells [1]; [3]): 75 nM | IC90 (human bone marrow cells [1]; [6]): 301 nM | IC50 (human bone marrow cells [2]; [4]): 40.3 nM | IC90 (human bone marrow cells [2]; [5]): 122 nM
